Test results reported in the supplement of paper PMC10307832.

How the values were obtained:
Experiment in all cases: relative viability (nuclei count vs DMSO), 5 days (fraction); higher = more cells survive
LXF-289 = test system: LXF-289
Summary of the method: (§1)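 Lung cancer cell lines were seeded in 1536-well plates and dosed by pin tool the next day, with either a single drug or a fixed anchor-drug dose combined with five library-drug doses (not always all listed) spaced in √10 steps. Five days later, one step fixed the cells and stained their nuclei (final 0.05% Triton X-100, 1% formaldehyde, 1 ug/ml Hoechst), and nuclei were counted on 4× images. Relative viability is the nuclei count in treated wells divided by the count in vehicle wells, and each value is the median of duplicate plates.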

NCI-H460 = test system: NCI-H460
Summary of the method: as §1

NCI-H1734 = test system: NCI-H1734
Summary of the method: as §1

201T = test system: 201T
Summary of the method: as §1

NCI-H1437 = test system: NCI-H1437
Summary of the method: as §1

NCI-H1651 = test system: NCI-H1651
Summary of the method: as §1

H3255 = test system: H3255
Summary of the method: as §1

NCI-H23 = test system: NCI-H23
Summary of the method: as §1

SW 900 = test system: SW 900
Summary of the method: as §1

NCI-H441 = test system: NCI-H441
Summary of the method: as §1

CAL-12T = test system: CAL-12T
Summary of the method: as §1

EMC-BAC-2 = test system: EMC-BAC-2
Summary of the method: as §1

UMC-11 = test system: UMC-11
Summary of the method: as §1

NCI-H2342 = test system: NCI-H2342
Summary of the method: as §1

ChaGo-K-1 = test system: ChaGo-K-1
Summary of the method: as §1

NCI-H838 = test system: NCI-H838
Summary of the method: as §1

NCI-H2085 = test system: NCI-H2085
Summary of the method: as §1

NCI-H1975 = test system: NCI-H1975
Summary of the method: as §1

HOP-62 = test system: HOP-62
Summary of the method: as §1

NCI-H1755 = test system: NCI-H1755
Summary of the method: as §1

NCI-H2405 = test system: NCI-H2405
Summary of the method: as §1

NCI-H2347 = test system: NCI-H2347
Summary of the method: as §1

NCI-H2023 = test system: NCI-H2023
Summary of the method: as §1

## C=C1C(=O)O[C@@H](CCCCCCCC)[C@@H]1C(=O)O [C-75] + O=C(CCCCCCC(=O)Nc1ccccc1)NO [Vorinostat] (partner 1 µM)
LXF-289; first compound 0.08 µM
  relative viability: 0.716
LXF-289; first compound 0.253 µM
  relative viability: 0.927
LXF-289; first compound 0.8 µM
  relative viability: 0.742
LXF-289; first compound 2.53 µM
  relative viability: 0.781
LXF-289; first compound 8 µM
  relative viability: 0.749
NCI-H460; first compound 0.08 µM
  relative viability: 0.698
NCI-H460; first compound 0.253 µM
  relative viability: 0.882
NCI-H460; first compound 0.8 µM
  relative viability: 0.688
NCI-H460; first compound 2.53 µM
  relative viability: 0.58
NCI-H460; first compound 8 µM
  relative viability: 0.674
NCI-H1734; first compound 0.08 µM
  relative viability: 0.834
NCI-H1734; first compound 0.253 µM
  relative viability: 0.877
NCI-H1734; first compound 0.8 µM
  relative viability: 0.766
NCI-H1734; first compound 2.53 µM
  relative viability: 0.538
NCI-H1734; first compound 8 µM
  relative viability: 0.693
201T; first compound 0.08 µM
  relative viability: 0.976
201T; first compound 0.253 µM
  relative viability: 1.31
201T; first compound 0.8 µM
  relative viability: 0.91
201T; first compound 2.53 µM
  relative viability: 0.936
201T; first compound 8 µM
  relative viability: 0.979
NCI-H1437; first compound 0.08 µM
  relative viability: 0.866
NCI-H1437; first compound 0.253 µM
  relative viability: 0.98
NCI-H1437; first compound 0.8 µM
  relative viability: 0.733
NCI-H1437; first compound 8 µM
  relative viability: 0.717
NCI-H1651; first compound 0.08 µM
  relative viability: 0.55
NCI-H1651; first compound 0.253 µM
  relative viability: 0.58
NCI-H1651; first compound 0.8 µM
  relative viability: 0.525
NCI-H1651; first compound 2.53 µM
  relative viability: 0.522
NCI-H1651; first compound 8 µM
  relative viability: 0.509
H3255; first compound 0.08 µM
  relative viability: 0.846
H3255; first compound 0.253 µM
  relative viability: 0.621
H3255; first compound 0.8 µM
  relative viability: 0.79
H3255; first compound 2.53 µM
  relative viability: 0.627
H3255; first compound 8 µM
  relative viability: 0.732
NCI-H23; first compound 0.08 µM
  relative viability: 0.605
NCI-H23; first compound 0.253 µM
  relative viability: 0.642
NCI-H23; first compound 0.8 µM
  relative viability: 0.497
NCI-H23; first compound 2.53 µM
  relative viability: 0.366
NCI-H23; first compound 8 µM
  relative viability: 0.407
SW 900; first compound 0.08 µM
  relative viability: 0.669
SW 900; first compound 0.253 µM
  relative viability: 0.824
SW 900; first compound 0.8 µM
  relative viability: 0.47
SW 900; first compound 2.53 µM
  relative viability: 0.395
SW 900; first compound 8 µM
  relative viability: 0.49
NCI-H441; first compound 0.08 µM
  relative viability: 0.82
NCI-H441; first compound 0.253 µM
  relative viability: 0.885
NCI-H441; first compound 0.8 µM
  relative viability: 0.764
NCI-H441; first compound 8 µM
  relative viability: 0.568
CAL-12T; first compound 0.08 µM
  relative viability: 0.721
CAL-12T; first compound 0.253 µM
  relative viability: 1.12
CAL-12T; first compound 0.8 µM
  relative viability: 0.918
CAL-12T; first compound 2.53 µM
  relative viability: 0.674
CAL-12T; first compound 8 µM
  relative viability: 0.89
EMC-BAC-2; first compound 0.08 µM
  relative viability: 0.462
EMC-BAC-2; first compound 0.253 µM
  relative viability: 0.407
EMC-BAC-2; first compound 0.8 µM
  relative viability: 0.276
EMC-BAC-2; first compound 2.53 µM
  relative viability: 0.355
EMC-BAC-2; first compound 8 µM
  relative viability: 0.378
UMC-11; first compound 0.08 µM
  relative viability: 0.38
UMC-11; first compound 0.253 µM
  relative viability: 0.497
UMC-11; first compound 0.8 µM
  relative viability: 0.343
UMC-11; first compound 2.53 µM
  relative viability: 0.257
UMC-11; first compound 8 µM
  relative viability: 0.294
NCI-H2342; first compound 0.08 µM
  relative viability: 0.695
NCI-H2342; first compound 0.253 µM
  relative viability: 0.728
NCI-H2342; first compound 0.8 µM
  relative viability: 0.71
NCI-H2342; first compound 2.53 µM
  relative viability: 0.727
NCI-H2342; first compound 8 µM
  relative viability: 0.736
ChaGo-K-1; first compound 0.08 µM
  relative viability: 0.759
ChaGo-K-1; first compound 0.253 µM
  relative viability: 0.772
ChaGo-K-1; first compound 0.8 µM
  relative viability: 0.701
ChaGo-K-1; first compound 2.53 µM
  relative viability: 0.609
ChaGo-K-1; first compound 8 µM
  relative viability: 0.668
NCI-H838; first compound 0.08 µM
  relative viability: 0.761
NCI-H838; first compound 0.253 µM
  relative viability: 0.669
NCI-H838; first compound 0.8 µM
  relative viability: 0.726
NCI-H838; first compound 2.53 µM
  relative viability: 0.648
NCI-H838; first compound 8 µM
  relative viability: 0.663
NCI-H2085; first compound 0.08 µM
  relative viability: 0.801
NCI-H2085; first compound 0.253 µM
  relative viability: 0.749
NCI-H2085; first compound 0.8 µM
  relative viability: 0.752
NCI-H2085; first compound 2.53 µM
  relative viability: 0.664
NCI-H2085; first compound 8 µM
  relative viability: 0.738
NCI-H1975; first compound 0.08 µM
  relative viability: 0.757
NCI-H1975; first compound 0.253 µM
  relative viability: 0.733
NCI-H1975; first compound 0.8 µM
  relative viability: 0.761
NCI-H1975; first compound 2.53 µM
  relative viability: 0.718
NCI-H1975; first compound 8 µM
  relative viability: 0.742
HOP-62; first compound 0.08 µM
  relative viability: 0.563
HOP-62; first compound 0.253 µM
  relative viability: 0.834
HOP-62; first compound 0.8 µM
  relative viability: 0.629
HOP-62; first compound 2.53 µM
  relative viability: 0.478
HOP-62; first compound 8 µM
  relative viability: 0.449
NCI-H1755; first compound 0.08 µM
  relative viability: 0.732
NCI-H1755; first compound 0.253 µM
  relative viability: 0.868
NCI-H1755; first compound 0.8 µM
  relative viability: 0.692
NCI-H1755; first compound 2.53 µM
  relative viability: 0.774
NCI-H1755; first compound 8 µM
  relative viability: 0.732
NCI-H2405; first compound 0.08 µM
  relative viability: 1
NCI-H2405; first compound 0.253 µM
  relative viability: 0.831
NCI-H2405; first compound 0.8 µM
  relative viability: 0.313
NCI-H2405; first compound 2.53 µM
  relative viability: 0.708
NCI-H2405; first compound 8 µM
  relative viability: 0.891
NCI-H2347; first compound 0.08 µM
  relative viability: 0.567
NCI-H2347; first compound 0.253 µM
  relative viability: 0.842
NCI-H2347; first compound 0.8 µM
  relative viability: 0.614
NCI-H2347; first compound 2.53 µM
  relative viability: 0.535
NCI-H2347; first compound 8 µM
  relative viability: 0.615
NCI-H2023; first compound 0.08 µM
  relative viability: 0.653
NCI-H2023; first compound 0.253 µM
  relative viability: 0.944
NCI-H2023; first compound 0.8 µM
  relative viability: 0.604
NCI-H2023; first compound 2.53 µM
  relative viability: 0.6
NCI-H2023; first compound 8 µM
  relative viability: 0.37
